Experimental data reported in patent US10960020B2, “Modulation of PCSK9 and LDLR through DRP1 inhibition” (THE BRIGHAM AND WOMEN'S HOSPITAL, INC., priority 2016, dated 2021).

Tests used:
Format in all cases: cell-based, human
[1] = system: HepG2 cells; experiment: HepG2 viability by Trypan Blue exclusion; details: HepG2, Mdivi-1, 24 hours
Procedure: HepG2 cells were obtained from ATCC (Manassas, Va.), and cultured in EMEM with L-glutamine (ATCC) medium, 1% pen/strep, with and without 10% FBS (Thermo Fisher Scientific, Waltham, Mass.) in 12-well plates (Corning, Durham, N.C.). HepG2 cells were plated at a density of 60-70% prior to treatment to avoid clumping. Freshly isolated primary human hepatocytes plated at 100% confluency on 12-well plates were obtained from Thermo Fisher Scientific. Three donors were used to obtain experimental data: person, person, and a person. Primary hepatocytes were treated immediately upon arrival and cultured in William's E medium with hepatic maintenance supplement pack (Thermo Fisher Scientific), 1% pen/strep (VWR; Radnor, Pa.), and 10% FBS (Thermo Fisher Scientific). Cell viability was assessed by Trypan Blue exclusion using live/dead cell counting on a Countess™ II LT automated cell counter (Thermo Fisher Scientific).

[2] = system: HepG2 cells; experiment: Mitochondrial membrane potential by TMRE, HepG2; details: HepG2, Mdivi-1 50 μM, 24 hours
Procedure: Mitochondrial membrane potential was assessed by TMRE reagent (Abcam) as previously described^21.

[3] = system: BCL-XL; experiment: BCL-XL mRNA and protein, HepG2; details: HepG2, Mdivi-1 50 μM, 24 hours
Description: Human cells and mouse liver was homogenized with TriZolTM (Life Technologies, Grand Island, N.Y.) to isolate RNA. QuantiTectTM Reverse Transcription Kit (Qiagen, Hilden, Germany) was used for reverse transcription on total RNA. cDNA was generated using the Quanta gScriptTM cDNA Synthesis Kit (Bioscience Inc., Gaithersburg, Md.). mRNA levels were quantified on a 7900HT real-time PCR system (Thermo Fisher Scientific) using TaqManTM real-time PCR with the following probes: Hs02758991_g1 (human GAPDH); Mm99999915_g1 (mouse Gapdh); Hs00236329 m1 (human BCL2L1); Hs00247147_m1 (human DRP1); Hs00545399_m1 (human PCSK9); Mm01263610_m1 (mouse Pcsk9); Hs00168352_m1 (human HMGCR); […]); Hs00181192_m1 (human LDLR); Mm00440169_m1 (mouse Ldlr); Hs01088691_m1 (human SREBP1); Mm00550338_m1 (mouse Srebp1); Hs00231674_m1 (human SREBP1a); custom primer (human SREBP1c); Hs01081784_m1 (human SREBP2); Mm01306292_m1 (mouse Srebp2); Hs01005622_m1 (human FASN); […]); Hs00167041_m1 (human HNF1A); Mm00493434_m1 (mouse Hnf1a); Hs00171168 (human APOE); Hs01059118_m1 (human ABCA1); Hs01103582_s1 (human JUN). Mouse SREBP-1c was analyzed by SYBERTM green PCR with the following primers: [NT] […] Protein concentrations were determined by the Pierce BCA AssayTM (Thermo Fisher Scientific). […] Protein levels were normalized to β-ACTIN, α-TUBULIN, or LAMIN A/C with the use of NIH ImageJ software for quantification.

Structure (SMILES): COc1cc(-n2c(S)nc3ccccc3c2=O)c(Cl)cc1Cl [Mdivi-1, 3-(2,4-Dichloro-5-methoxyphenyl)-2,3-dihydro-2-thioxo-4(1H)-quinazolinone]
- cell viability [1]: without altering
- Mitochondrial function, assessed by mitochondrial membrane potential [2]: not noticeably different
- BCL-XL abundance (protein) [3]: increased
- BCL-XL expression (BCL2L1 mRNA) [3]: increased
